# Results: patent US9464291B2, “Methods and compositions for the treatment of cancer” (University of South Alabama, priority 2012, dated 2016)
# pIC50: −log10 of the molar value. “And” between values parts separate entries of the source, which are not always exact repeats. Identical values can stand only once. “Also recorded” adds a separate entry of the source. Like-named read-outs stand apart in the source and are kept apart here.
# How the values were obtained:
# c-jun = c-jun mRNA (semi-quantitative PCR) and protein (Western blot) in A2780-CP70 cells; format: cell-based, human; details: A2780-CP70
# Method: Controls included α-tubulin and histone deacetylase 3. C-jun antibody recognizes non-phosphorylated c-jun protein.
# c-jun and c-fos mRNA expression was examined in A2780-CP70 cells transfected with anti-GLI1 shRNA construct at 6 hr, 24 hr, 48 hr, and 72 hr post-transfection using semi-quantative PCR analysis (FIG. 41).
# A2780-CP70 cells were transfected with an IC50 dose of anti-Gli1 shRNA (treated) construct or vector (control). Total intracellular c-jun mRNA and c-jun protein was measured at 6 hr, 24 hr, 48 hr, and 72 hr.
# C-jun mRNA and protein levels were further examined in cisplatin-resistant A2780-CP70 cells treated with an IC50 dose of anti-Gli1 shRNA. FIG. 78 depicts mRNA levels (panel A) and protein levels (panel B) in cells at 6, 24, 48, and 72 hours post-treatment.
# [1] = test system: c-jun (Ser 63, Ser 73, Thr 91, Thr 93); test: c-jun protein phosphorylation, Western blot, A2780-CP70 cells; format: cell-based, human; details: 72 hr observation
# Method: Protein levels for c-jun, c-fos, phosphorylated c-jun (Ser 63), phosphorylated c-jun (Ser 73), and phosphorylated c-jun (Thr 91, Thr 93) were tested in cytosolic, nuclear, and whole cell fractions at 0 hr, 6 hr, 24 hr, 48 hr, and 72 hr. Internal controls for cytosolic and nuclear fractions included α-tubulin and histone deacetylase 3.
# Phosphorylation of c-jun in A2780-CP70 cells transfected with anti-GLI1 shRNA construct was assessed using Western blot analysis. Protein levels for c-jun, phosphorylated c-jun (Ser 63), phosphorylated c-jun (Ser 73), and phosphorylated c-jun (Thr 91, Thr 93) were examined at 0 hr, 6 hr, 24 hr, 48 hr, and 72 hr.
# A2780-CP70 cells were treated with an IC50 dose of cisplatin and an IC50 dose of anti-Gli1 shRNA.
# ERCC1, XPD, XRCC1 [2] = test: ERCC1, XPD, XRCC1 mRNA / protein levels in A2780-CP70 cells; format: cell-based, human
# ERCC1, XPD, XRCC1 [3] = details: cells treated with cisplatin only; cited from earlier work
# A2780-CP70 cells [4] = test: Cisplatin cell growth / cell killing curves in A2780-CP70 cells; format: cell-based, human; details: cisplatin alone (lipofectamine only / control cells)
# Method: A2780-CP70 cells were transfected with 0.07 μg/well anti-Gli1 shRNA construct or control. Transfected cells were treated with 0 μM, 10 μM, 30 μM, and 100 μM cisplatin at 24 hr post-transfection. Percent cell growth was determined relative to control cells. […] In another experiment, A2780-CP70 cells were transfected with 0.02 μg/well or 0.07 μg/well anti-Gli1 shRNA construct. Transfected cells were treated with 0 μM, 2 μM, 5 μM, 10 μM, 30 μM, and 50 μM cisplatin at 24 hr post-transfection. Percent cell growth was determined relative to control cells (FIG. 52B).
# Control cells were treated with cisplatin only. Percent cell growth was determined relative to control cells.
# [5] = test system: c-jun (Ser 63, Ser 73, Thr 91, Thr 93); details: A2780-CP70; 3-5 hr after cisplatin treatment; cited from earlier work
# A2780-CP70 cells [6] = details: cisplatin-resistant A2780-CP70; cited from earlier work
smiles,measurement,setting,value
N.N.[Cl][Pt][Cl] [cisplatin],time of peak c-jun level,c-jun; IC50 dose of agent,6 h
same,c-jun protein expression,c-jun; IC50 dose of cisplatin,increased substantial
same,c-jun phosphorylation at Ser63,[1],increases specifically at Ser63 and Ser73
same,c-jun phosphorylation at Thr91/93,[1],do not change significantly; also recorded: did not significantly change
same,"time of highest ERCC1, XPD, XRCC1 mRNA levels after cisplatin exposure","ERCC1, XPD, XRCC1 [2]; A2780-CP70, cyclopamine pretreatment vs cisplatin alone",4 to 6 h
same,"increase of ERCC1, XPD, and XRCC1 protein expression levels","ERCC1, XPD, XRCC1 [2]; cells treated with cisplatin",5 fold
same,expected rise of ERCC1 (as would XPD and XRCC1),"ERCC1, XPD, XRCC1 [2]; cisplatin alone (unpublished data)",more than 6 fold
same,expected increase in ERCC1 mRNA levels,"ERCC1, XPD, XRCC1 [3]",6 fold
same,pIC50,A2780-CP70 cells [4],4.52 and 4.55
same,peak c-jun phosphorylation over baseline,[5],15 fold
same,pIC50,A2780-CP70 cells [6],~4.40
